From patent publication US20150018417A1, “FATTY ACIDS AS ANTI-INFLAMMATORY AGENTS” (University of Pittsburgh - Of the Commonwealth System of …, priority 2012, published 2015)

How the values were obtained:
[1] = system: inducible nitric oxide synthase (iNOS); experiment: iNOS induction and nitrite accumulation in bone marrow-derived macrophages; type: cell-based, C57BL/6 mice; conditions: BMDMs activated with Kdo2 and IFNγ
Protocol: FIG. 24 illustrates that 17-oxoDHA and 7-oxoDPA modulate the inflammatory response. in bone marrow-derived macrophages. Cells were treated with increasing concentration of 17-oxoDHA and 17oxoDPA for 6 h and Kdo2 Lipid A (0.5 μg/ml) and IFNγ were added. Samples were collected at 12 h. (2) Nitrite levels were measured in the cell media and normalized to the total protein content: iNOS and COX-2 levels were measured in total cell lystaes. (b) IL-6, MCP-I, and IL-10 levels were measured in cell media and normalized to the total protein content.
(§1) Bone marrow derived macrophages were isolated from C57BL/6 mice according to the protocol developed by Davies. See Davies, J. Q. & Gordon, S. Isolation and culture of murine macrophages. Methods Mol Biol 290, 91-103 (2005).
Protein concentrations of samples were measured by BCA assay (Pierce). The following primary antibodies were used: Nrf2 (Santa Cruz, sc-722), HO—I (Assay Design, SPA-896), Nqol (Abeam, ab34173), Cox-2 (Santa Cruz, sc-1745), iNOS (BD Transduction Lab, 610332), Lamin Bl (Abeam, ab16048). Actin (detected by Sigma A2066) was used as loading control. Secondary antibodies were purchased from Santa Cruz Biotechnology.
(§2) Total nitrite and nitrate concentration was measured in cell culture media by Griess reaction using the Nitrate/Nitrite Colorimetric Assay Kit (Cayman Chemical).

RAW264.7 cells = experiment: EFAD formation in activated RAW264.7 cells treated with inhibitors; type: cell-based, murine
NF-κB and Stat-1 = experiment: p65 nuclear translocation and DNA binding, Stat1 phosphorylation; type: cell-based, murine; conditions: RAW264.7
Source text: The expression of iNOS and the analyzed pro-inflammatory cytokines is dependent on the activity of NF-κB and Stat-1. It has been reported that electrophilic lipids can repress the activation of these transcriptional factors either by direct adduction to the DNA binding domain of the NF-K B subunit p65 and to the inhibitor IκBα or via indirect mechanisms.

[2] = system: inducible nitric oxide synthase (iNOS); experiment: iNOS induction and nitrite accumulation in activated RAW264.7 cells; type: cell-based, murine; conditions: RAW264.7 activated with Kdo2 and IFNγ
Protocol: FIG. 11 illustrates modulation of anti-oxidant and inflammatory responses by 17-oxoDHA and 17-oxoDPA. RAW264.7 cells were treated with increasing concentration of 17-oxoDHA and 17-oxoDPA. (a) Cells were harvested 1 h after treatment and Nrf2 levels were quantified in nuclear extracts, (b) Cells were harvested 18 h after treatment and HO—I and Nqol (upper band) levels were measured by western blot, (c, d) RAW264.7 cells were treated with increasing concentration of 17-oxoDHA and 17-oxoDP A for 6 h and Kdo2+IFNγ were added. Samples were collected at 12 h. IL-6, MCP-I and IL-IO levels were measured in the cell media by Quantikine ELISA Kit (R&D Systems) and normalized by the total protein content (c); Nitrite levels were measured in the cell media and normalized by the total protein content and iNOS and Cox-2 levels were measured in total cell lysates (d); (e) PPARγ beta-lactamase reporter assays were performed for Rosiglitazone, 17-OxoDPA, 17-OxoDHA, 15d-PGJ2, 17-hydroxyDHA, DPA, and DHA with concentrations ranging from 0.5-10,000 nM.
For activation experiments RAW 264.7 cells were seeded, incubated overnight, and treated at approximately 80% confluence with the indicated compounds 47. Non-activated controls were treated with vehicle alone. During activation, cells were maintained in an activation medium (SMEM) of Minimum Essential Medium Eagle (Cellgro, 17-305)+2% FBS supplemented with L-glutamine (584 mg/L), Na-pyruvate (110 mg/L) and Hepes (3.57 g/L, pH 7.4). For inhibition studies, inhibitors were added to the medium at the time of activation and MTT assays were used to confirm cell viability. Cells were harvested 20 h post activation (unless otherwise indicated) in 50 mM phosphate buffer (pH 7.4) and snap frozen in liquid N2. […]
Protein concentrations of samples were measured by BCA assay (Pierce). […] Actin (detected by Sigma A2066) was used as loading control. […]
as §2

GAPDH = GAPDH (Oryctolagus cuniculus, UniProt P46406); experiment: In vitro alkylation of GAPDH, mass spectrometric analysis; type: biochemical, rabbit
Source text: FIG. 21 illustrates the mass spectrometric analysis of an in vitro reaction of GAPDHvith EFAD-2. Four residues were detected and confirmed-as being targets for EfAD-2 in treated rabbit GAPDH. The peptides were alkylated as Cys244 (a), His163 (b), Cys149 (c) and His328 (d). Upper panels show EFAD-2 modified peptides and lower panels show spectra from corresponding native peptide.
To more specifically test the binding of EFADs to nucleophilic residues in proteins, we tested whether GAPDH was alkylated by EFADs. This enzyme is a well-characterized target for electrophiles and becomes easily inactivated by nitrosylation, oxidation or nucleophilic addition.

Purified ovine COX-2 = biological target: T1, Purified ovine COX-2 (Ovis aries, UniProt P79208); experiment: COX-2 reaction with DPA ± ASA, OH-DPA formation; type: biochemical; conditions: ovine COX-2 + DPA 10 μM ± 2 mM ASA
T1 construct: Ovine placental COX-2 (Cayman 60120) was also from Cayman Chemicals; purchased Cayman Chemicals 60120; host or cells: ovine placenta
T1 sequence (P79208 17-603): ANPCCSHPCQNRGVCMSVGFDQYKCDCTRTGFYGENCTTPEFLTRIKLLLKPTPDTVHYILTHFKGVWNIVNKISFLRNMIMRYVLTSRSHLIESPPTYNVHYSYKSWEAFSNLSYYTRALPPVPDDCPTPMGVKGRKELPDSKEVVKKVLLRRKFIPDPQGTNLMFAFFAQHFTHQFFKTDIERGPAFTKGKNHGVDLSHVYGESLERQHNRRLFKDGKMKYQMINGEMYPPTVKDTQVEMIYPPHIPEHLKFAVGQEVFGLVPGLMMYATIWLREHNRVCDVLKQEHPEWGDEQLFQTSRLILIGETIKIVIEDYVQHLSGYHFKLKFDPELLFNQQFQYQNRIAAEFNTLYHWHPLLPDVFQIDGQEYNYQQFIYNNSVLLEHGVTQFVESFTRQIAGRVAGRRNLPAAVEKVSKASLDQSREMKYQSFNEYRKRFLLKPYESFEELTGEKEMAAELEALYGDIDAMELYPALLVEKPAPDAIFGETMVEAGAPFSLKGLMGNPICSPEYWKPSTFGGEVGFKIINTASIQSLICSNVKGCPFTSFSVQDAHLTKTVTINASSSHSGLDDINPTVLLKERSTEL
Protocol: The results of the COX-2 inhibition study implicate a the involvement of COX-2 in EFAD formation and motivated the development of an in vitro model of enzymatic EFAD synthesis. Purified ovine COX-2 was used to generate the EFAD-2 precursor (OH-DPA), (FIG. 7c-e), while the EFAD-I precursor, hydroxy-DHA (OH-DHA), was produced from DHA by COX-2 (FIGS. 19a and 19b).
Ovine placental COX-2 (20 U/ml) was preincubated in Tris/heme/phenol (THP) buffer ±2 mM ASA at 37° C. THP buffer, freshly prepared before each reaction, consisted of Tris*C1 (100 mM, pH 8.1), hematin (1 μM), and phenol (1 μM). The reaction was initiated by addition of the indicated fatty acids at a concentration of 10 μM. Reactions were terminated at the indicated time points by addition of ice-cold acetonitrile (9× reaction volume) and COX-2 protein was removed by centrifugation. Product formation was monitored by RP-HPLC-MS/MS in multiple reaction monitoring (MRM) mode following the loss Of CO2 (m/z 345/301 and m/z 343/299 for OH-DPA and OH-DHA, respectively).

[3] = system: bone marrow-derived macrophage (BMDM) cells; experiment: EFAD formation in activated bone marrow-derived macrophages; type: cell-based, C57BL/6 murine; conditions: BMDM activated with Kdo2 and IFNγ
Protocol: FIG. 8 illustrates formation of EFAD in activated primary murine macrophages. Bone marrow derived macrophages were activated with Kdo2 (0.5 μg/ml) and IFNγ (200 U/ml) and EFADs were detected 1O h post activation.
as §1
EFADs are produced by primary macrophages isolated from mouse bone marrow. […] Thus, C57BL/6 murine primary hematopoietic stem cells were differentiated to macrophages, activated with Kdo2 and IFNγ and analyzed for the formation of EFADs. Five out of the six EFAD species (EFAD-I, 2, -3, -5 and -6) were observed which co-eluted with those produced by RAW 264.7 cells and with the available standards.

GAPDH, sequence (P46406 whole entry): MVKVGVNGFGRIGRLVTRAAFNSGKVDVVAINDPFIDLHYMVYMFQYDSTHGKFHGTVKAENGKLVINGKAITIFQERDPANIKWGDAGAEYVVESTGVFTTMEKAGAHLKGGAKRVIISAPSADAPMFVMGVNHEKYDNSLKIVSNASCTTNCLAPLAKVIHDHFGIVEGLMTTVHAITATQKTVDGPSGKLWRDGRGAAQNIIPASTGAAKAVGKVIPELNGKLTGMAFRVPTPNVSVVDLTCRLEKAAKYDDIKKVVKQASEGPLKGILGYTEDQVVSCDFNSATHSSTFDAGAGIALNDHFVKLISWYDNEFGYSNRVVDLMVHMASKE

SMILES	iNOS induction and accumulation of nitrite in the cell media [1]	EFAD level +Celecoxib (↓COX) (RAW264.7 cells; RAW264.7 activated with Kdo2 and IFNγ, 20 h post activation)	EFAD level +Aspirin (↓COX) (RAW264.7 cells; RAW264.7 activated with Kdo2 and IFNγ, ASA 200 μM, 20 h post activation)	EFAD level +ETYA (↓COX) (RAW264.7 cells; RAW264.7 activated with Kdo2 and IFNγ, ETYA 25 μM, 20 h post activation)	EFAD level +MAFP (↓PLA2) (RAW264.7 cells; RAW264.7 activated with Kdo2 and IFNγ, MAFP 25 μM, 20 h post activation)	EFAD level +Diclofenac (↓COX) (RAW264.7 cells; RAW264.7 activated with Kdo2 and IFNγ, diclofenac 1 μM, 20 h post activation)	EFAD level +Genisteine (RAW264.7 cells; RAW264.7 activated with Kdo2 and IFNγ, genistein 25 μM, 20 h post activation)	EFAD level +Ibuprofen (↓COX) (RAW264.7 cells; RAW264.7 activated with Kdo2 and IFNγ, ibuprofen 100 μM, 20 h post activation)	EFAD level +Indomethacin (↓COX) (RAW264.7 cells; RAW264.7 activated with Kdo2 and IFNγ, indomethacin 25 μM, 20 h post activation)	p65 nuclear translocation and DNA binding, Stat1 phosphorylation (NF-κB and Stat-1)	iNOS induction and accumulation of nitrite in the cell media [2]	adduct formation with GAPDH residues (GAPDH)	increase of EFAD formation (RAW264.7 cells; ASA 200 μM, all EFADs except EFAD-4 and EFAD-6)	rate and extent of formation of OH-DPA (Purified ovine COX-2)	extent of EFAD formation with ASA [3]
CCC=CCC=CC=CC(=O)CC=CCC=CCCCCCC(=O)O (mixture of isomers) [EFAD-2]	strongly and dose-dependently repressed	↓	↑	↓	↓	↓	↓	↓	↓	did not affect	strongly and dose-dependently repressed	readily formed adducts with Cys244, Cys149, His 163 and His328	–	–	–
CC(=O)Oc1ccccc1C(=O)O [ASA, acetyl salicylic acid]	–	–	–	–	–	–	–	–	–	–	–	–	about 2.5 fold	increased the rate and extent of formation	increased about two to three fold
